Laboratory results taken from US20080070960A1, “Novel 3-Aryl-1,2-Benzisoxazole Derivatives and Use Thereof as Medicinal Products Against Cancer” (AVENTIS PHARMA S.A., priority 2005, published 2008).

target: Hsp82 (Saccharomyces cerevisiae, UniProt P02829); assay: Hsp82 ATPase activity inhibition (malachite green inorganic phosphate method, or PK/LDH coupled method); type: biochemical; conditions: not given
Protocol: The inorganic phosphate released during the hydrolysis of ATP by the ATPase activity of Hsp82 is quantified by the malachite green method. In the presence of this reagent, formation of the inorganic phosphate-molybdate-malachite green complex occurs, which complex absorbs at a wavelength of 620 nm.
The products to be evaluated are incubated in a reaction volume of 30 μl, in the presence of 1 μM Hsp82 and of 250 μM of substrate (ATP) in a buffer composed of 50 mM Hepes-NaOH (pH 7.5), 1 mM DTT, 5 mM MgCl2 and 50 mM KCl at 37° C. for 60 min. In parallel, a range of inorganic phosphate of between 1 and 40 μM is prepared in the same buffer. The ATPase activity is subsequently visualized by the addition of 60 μl of the biomol green reagent (Tebu). After incubation at ambient temperature for 20 min, the absorbance of the various wells is measured using a microplate reader at 620 nm. The concentration of inorganic phosphate of each sample is then calculated from the standard curve. The ATPase activity of Hsp82 is expressed as concentration of inorganic phosphate produced in 60 min. The effect of the various products tested is expressed as percentage inhibition of the ATPase activity.
The formation of ADP due to the ATPase activity of Hsp82 was used to develop another method for evaluating the enzymatic activity of this enzyme by application of an enzymatic coupling system involving pyruvate kinase (PK) and lactate dehydrogensase (LDH). In this kinetic-type spectrophotometric method, the PK catalyses the formation of ATP and of pyruvate from phosphoenol pyruvate (PEP) and from the ADP produced by Hsp82. The pyruvate formed, which is a substrate for LDH, is subsequently converted into lactate in the presence of NADH. In this case, the decrease in NADH concentration, measured by the decrease in absorbance at the wavelength of 340 nm, is proportional to the concentration of ADP produced by Hsp82.
The products tested are incubated in a reaction volume of 100 μl of buffer composed of 100 mM Hepes-NaOH (pH 7.5), 5 mM MgCl2, 1 mM DTT, 150 mM KCl, 0.3 mM NADH, 2.5 mM PEP and 250 μM ATP. This mixture is preincubated at 37° C. for 30 min before the addition of 3.77 units of LDH and 3.77 units of PK. The reaction is initiated by the addition of the product to be evaluated, at varying concentrations, and of Hsp82, at a concentration of 1 μM. The enzymatic activity of Hsp82 is then measured, continuously, in a microplate reader, at 37° C., at the wavelength of 340 nm. The initial rate of the reaction is obtained by measuring the slope of the tangent at the origin of the curve recorded. The enzymatic activity is expressed in μM of ADP formed per minute. The effect of the various products tested is expressed as percentage inhibition of the ATPase activity.

Hsp82, sequence (P02829 whole entry): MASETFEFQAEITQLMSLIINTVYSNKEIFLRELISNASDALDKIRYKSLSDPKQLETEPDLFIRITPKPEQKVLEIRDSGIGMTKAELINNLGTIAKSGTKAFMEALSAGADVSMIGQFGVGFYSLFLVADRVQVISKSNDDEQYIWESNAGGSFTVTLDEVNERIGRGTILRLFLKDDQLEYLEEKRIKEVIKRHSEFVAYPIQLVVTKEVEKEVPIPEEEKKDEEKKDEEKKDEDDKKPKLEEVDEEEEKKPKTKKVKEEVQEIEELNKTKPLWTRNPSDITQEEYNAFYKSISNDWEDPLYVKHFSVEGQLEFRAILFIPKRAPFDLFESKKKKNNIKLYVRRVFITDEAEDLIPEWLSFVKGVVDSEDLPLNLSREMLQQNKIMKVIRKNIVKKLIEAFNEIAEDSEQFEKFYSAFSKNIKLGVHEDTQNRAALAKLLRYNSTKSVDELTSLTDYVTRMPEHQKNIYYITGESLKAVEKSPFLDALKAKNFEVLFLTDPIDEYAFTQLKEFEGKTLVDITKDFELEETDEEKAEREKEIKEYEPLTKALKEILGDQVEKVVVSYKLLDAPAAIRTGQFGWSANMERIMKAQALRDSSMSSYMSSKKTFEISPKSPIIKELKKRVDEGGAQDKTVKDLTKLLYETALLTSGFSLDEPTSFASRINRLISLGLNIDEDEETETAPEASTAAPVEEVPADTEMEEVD

`Oc1ccc(-c2noc3ccccc23)c(O)c1` [Example 1, 4-(1,2-Benzisoxazol-3-yl)benzene-1,3-diol] showed an IC50 of 1 to 10 µM.

same assay, conditions: inhibition of ATPase activity of Hsp82; 1 μM Hsp82, 250 μM ATP, 37° C.; read-out: IC50

`Oc1cc(O)c(-c2noc3ccccc23)cc1Br` [Example 2, 4-(1,2-Benzisoxazol-3-yl)-6-bromobenzene-1,3-diol] and `CCc1cc(-c2noc3ccccc23)c(O)cc1O` [Example 6, 4-(1,2-Benzisoxazol-3-yl)-6-ethylbenzene-1,3-diol] fall in the same range of IC50: 1 to 10 µM for the first, 1 to 10 µM for the second.

`COC(=O)c1cc(-c2noc3ccccc23)c(O)cc1O` [Example 3, 5-(1,2-Benzisoxazol-3-yl)-2,4-dihydroxybenzenecarboxylic acid methyl ester] and `O=C(Cc1ccccc1)c1cc(-c2noc3ccccc23)c(O)cc1O` [Example 5] fall in the same range of IC50: 10 to 100 µM for the first, 10 to 100 µM for the second.

First: O=C(NCc1ccccc1)c1cc(-c2noc3ccccc23)c(O)cc1O [Example 4, N1-Phenylmethyl-5-(1,2-benzisoxazol-3-yl)-2,4-dihydroxybenzenecarboxamide]
Second: Oc1cc(O)c(-c2noc3ccccc23)cc1CCc1ccccc1 [Example 7, 4-(1,2-Benzisoxazol-3-yl)-6-(2-phenylethyl)benzene-1,3-diol]
The IC50 of the first is higher: 10 to 100 µM for the first, 1 to 10 µM for the second.

First: Oc1cc(O)c(-c2noc3ccccc23)cc1CNc1ccccc1 [Example 8, 4-(1,2-Benzisoxazol-3-yl)-6-(phenylamino)methylbenzene-1,3-diol]
Second: Cc1ccc(NCc2cc(-c3noc4ccccc34)c(O)cc2O)cc1C [Example 9, 4-(1,2-Benzisoxazol-3-yl)-6-(3,4-dimethylphenylamino)methylbenzene-1,3-diol]
The IC50 of the first is higher: 1 to 10 µM for the first, under 1 µM for the second. The second is the more potent here.

First: COc1cc(O)c(-c2noc3ccccc23)cc1CNc1ccc(C)c(C)c1 [Example 10, 2-(1,2-benzisoxazol-3-yl)-4-(3,4-dimethylphenylamino)methyl-5-methoxyphenol]
Second: Oc1cc(O)c(-c2noc3ccccc23)cc1CNc1ccc(Cl)c(Cl)c1 [Example 11, 4-(1,2-Benzisoxazol-3-yl)-6-(3,4-dichlorophenylamino)methylbenzene-1,3-diol]
The IC50 of the first is higher: 10 to 100 µM for the first, 1 to 10 µM for the second. The second is the more potent here.

For `Oc1cc(O)c(-c2noc3ccccc23)cc1/C=N/c1ccc(Cl)c(Cl)c1` [Example 12, 4-(1,2-benzisoxazol-3-yl)-6-(3,4-dichlorophenyl)iminomethylbenzene-1,3-diol], the IC50 was 1 to 10 µM.
